The source of these data is patent publication US12448388B2, “PRMT5 inhibitors and uses thereof” (Gilead Sciences, Inc., priority 2023, dated 2025).

In brackets after ≈: the same amount, converted by molar mass. Where two headings read alike, the source gives them in different places.

Series [1] deals with Symmetric Di-methyl Arginine (SDMA) signal (PRMT5 inhibition) in HCT116 MTAP-deleted cells. Description: Symmetric di-methyl arginine image-based high content screen assay (SDMA assay), HCT116 MTAP-deleted. The format is cell-based. As to conditions: for EC50: Homo sapiens, HCT-116, HCT116 MTAP-deleted, class symbols. Put shortly:
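HCT116 WT and MTAP-deleted cells (800/well, RPMI 1640 + 10% FBS) treated with compound 3 days at 37 °C; formalin-fixed, stained with anti-SDMA antibody/Alexa 488 plus DAPI. Mean SDMA intensity per DAPI-defined cell imaged; EC50 from 4-parameter logistic fit.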

The subject of series [2] is HCT116 MTAP-deleted cell lines. Description: Cell viability assay (CellTiter-Glo, 7 days), HCT116 MTAP-deleted. As to conditions: for Selectivity: HCT116 WT CC50 versus HCT116 MTAP^del CC50; for CC50: Homo sapiens, HCT116 MTAP-deleted. The class given is cell-based. Put shortly:
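PRMT5 inhibitors were serially diluted in DMSO and acoustically spotted as dose-response series into plates before cell seeding. Cells were grown with compound for 7 days at 37 °C, 5% CO2, 90% humidity, then viability was read by CellTiter-Glo luminescence and reported as CC50.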
Background: ATP-based viability assays read luminescence as a measure of living cells.

Series [3] can be described thus: Cell viability assay (CellTiter-Glo, 7 days), HCT116 WT. The class given is cell-based. To be noted: human, HCT116 WT cells, 7 days of treatment, CTG. As to the method:
Control compounds were analyzed in parallel each time for quality control. In Brief, on Day -1, a serial dilution of stock compounds in DMSO was performed using BioMek liquid handlers and dispensed using Echo acoustic dispenser into 384 well plates. Both tool compounds and sample compounds were spotted in the same plate for a dose response of PRMT5 inhibitors. Compound plates were stored as frozen until the cells were ready for seeding. […] After equilibrating the plate in room temperature, the cells were incubated for 7 days inside the sealed incubator set at 37° C. with 90% humidity and 5% CO2. On Day 7, the viability of cells was measured using a CTG assay kit (CellTitre-Glo;Promega cat no. G7573). Shortly, 40 μl per well of luminescent cell viability assay reagent were dispensed using EL460 liquid dispenser 5 μl cassette. CTG luminescence signal was measured using an EnVision plate reader (PerkinElmer) in accordance with manufacturer's instruction. […] Selectivity with * is artificially high due to limited solubility of the compound hampering accurate measurement of WT CC50.

Series [4] can be described thus: PBS solubility (kinetic solubility from DMSO stocks). The format is physicochemical. As to conditions: 22 °C, aqueous buffer, kinetic from dmso stock; 1x PBS pH 7.4, 1.0% DMSO, 24-hour incubation at ambient temperature. How it is done:
Buffer Preparation: 1×PBS, 7.4: Phosphate Buffered Saline solution 10×, PBS (Fisher Bioreagent, part number BP399-500) 50 mL was added to approximately 450 mL HPLC grade H2O. The volume of the solution was then adjusted to 500 mL for a total dilution factor of 1:10 and a final PBS concentration of 1×. The pH of the final solution was measured and found to be 7.4.
The final DMSO Concentration is 1.0% and maximum theoretical compound concentration is 100 μM (assuming stock concentration of 10 mM). The filter plate was sealed. Following 24-hour incubation at ambient temperature (20.8-24.0° C.), the samples were vacuum filtered, and the filtrates were collected in a 96 well polypropylene plate for analysis. The collection plate was sealed for analysis. Filtrates were injected into the nitrogen detector for quantification on Analiza's Automated Discovery Workstation. The results are reported here in both μM and μg/mL.
Calculation of Results: The equimolar nitrogen response of the detector is calibrated using standards which span the dynamic range of the instrument from 0.08 to 4500 μg/ml nitrogen. The filtrates were quantified with respect to this calibration curve. The calculated solubility values are corrected for background nitrogen present in the DMSO, and the media used to prepare the samples. All reported values for compounds containing adjacent nitrogen atoms in a ring structure should be increased by ˜25%. […] The solubility results presented assume that the samples were free of nitrogen containing impurities and are stable under the assay conditions.

The mark [5] stands for this setting: HCT116 WT vs HCT116 MTAP-deleted.
[6] abbreviates: HCT-116, 168 h, 7 days of treatment, CTG, read-out: CC50-HCT116-MTAP^del.
[7] abbreviates: HCT-116, cell viability assay, class symbols, read-out: CC50.
Setting [8] is: HCT116 WT versus HCT116 MTAP-deleted.
[9] abbreviates: HCT-116, cell viability, class symbols, read-out: CC50.

As for `Cc1cc2nc(N)c3cncn3c2cc1C(=O)N1CCC[C@@H]2Oc3cc(C(F)(F)F)ccc3[C@@H]21` [Ff-368, (4-amino-7-methylimidazo[1,5-a]quinoxalin-8-yl)((4aS,9bS)-7-(trifluoromethyl)-3,4,4a,9b-tetrahydrobenzofuro[3,2-b]pyridin-1(2H)-yl)methanone], the EC50 selectivity in series [1] (setting [5]) was found to be 47. The compound also showed an EC50 in series [1] not above 1 nM. The compound further registered a Selectivity in series [2] of 59. The CC50 is 3 nM in series [2] (setting [6]) and less than 100 nM in series [2] (setting [7]). Besides, the cytotoxic concentration (CC50) at 7 days in series [3] turned out to be 178 nM.

The compound `Nc1nc2cc(F)c(C(=O)N3CCC[C@@H]4Oc5ccc(C(F)(F)F)cc5[C@@H]43)cc2n2cncc12` [Ff-620, (4-amino-7-fluoroimidazo[1,5-a]quinoxalin-8-yl)((4aS,9bS)-8-(trifluoromethyl)-3,4,4a,9b-tetrahydrobenzofuro[3,2-b]pyridin-1(2H)-yl)methanone] had a Selectivity in series [2] of 50. Moreover, the CC50 in series [2] (setting [6]) is 31 nM; in series [2] (setting [7]), less than 100 nM. This compound registered a CC50 at 7 days in series [3] of 1550 nM. Also, the concentration in solution in series [4] (solubility at 24 h) came to 1.2 µM (≈ 0.566 µg/mL).

Compound `Cc1ncn2c1c(N)nc1cnc(C(=O)N3CC[C@H]4C[C@@H]3c3ccc(C(F)(F)F)c(F)c3O4)cc12` [Ff-633, (4-amino-3-methylimidazo[1,5-a]pyrido[3,4-e]pyrazin-8-yl)((2S,6R)-10-fluoro-9-(trifluoromethyl)-3,4-dihydro-2H-2,6-methanobenzo[b][1,5]oxazocin-5(6H)-yl)methanone] displayed an EC50 selectivity in series [1] (setting [5]) of 82. In series [1], this compound returned an EC50 of 1 to 5 nM. The same compound registered a Selectivity in series [2] of 104. The CC50 in series [2] (setting [6]) was 20 nM; in series [2] (setting [7]) it was less than 100 nM. For the same compound, in series [3], the CC50 at 7 days amounted to 2080 nM.

In series [2], `Cc1ncn2c1c(N)nc1cnc(C(=O)N3CC[C@H]4C[C@@H]3c3ccc(OC(F)(F)F)cc3O4)cc12` [Ff-632, (4-amino-3-methylimidazo[1,5-a]pyrido[3,4-e]pyrazin-8-yl)((2S,6R)-9-(trifluoromethoxy)-3,4-dihydro-2H-2,6-methanobenzo[b][1,5]oxazocin-5(6H)-yl)methanone] registered a Selectivity of 93. Also, the plasma-adjusted CC50 (paCC50) in series [2] (HCT-116, paCC50 = CC50-HCT116-MTAP^del * (% free CCM/% free human plasma)) was 270 nM. In addition, the half-maximal cytotoxic concentration (CC50) in series [2] (setting [6]) was 18 nM; in series [2] (setting [7]) it was less than 100 nM. The compound further registered a CC50 at 7 days in series [3] of 1680 nM.

`CC(=O)N(C)N(Cc1nc2cc(Cl)ccc2s1)C(=O)c1ccc2nc(N)c3cnc(C)n3c2c1` [Fb-6, N′-acetyl-4-amino-N-((5-chlorobenzo[d]thiazol-2-yl)methyl)-N′,1-dimethylimidazo[1,5-a]quinoxaline-8-carbohydrazide] showed an EC50 selectivity in series [1] (setting [8]) of 390. In addition, in series [1], the EC50 was more than 5 nM. Besides, in series [2] (setting [9]), the CC50 fell in the range of 100 to 1000 nM.

For the compound `CN(C(=O)c1cc2c(cc1F)nc(N)c1cncn12)[C@@H]1COc2nc(C(F)(F)F)ccc21` [Ff-22, (S)-4-amino-7-fluoro-N-methyl-N-(6-(trifluoromethyl)-2,3-dihydrofuro[2,3-b]pyridin-3-yl)imidazo[1,5-a]quinoxaline-8-carboxamide], the EC50 selectivity in series [1] (setting [8]) is 587. The same compound showed an EC50 in series [1] of 1 to 5 nM. The CC50 in series [2] (setting [9]) was less than 100 nM.

As to `C[C@H](c1ncccn1)N(Cc1ccc(C(F)(F)F)cn1)C(=O)c1cc2c(cc1Cl)nc(N)n1cncc21` [Fg-3, (R)-5-amino-8-chloro-N-(1-(pyrimidin-2-yl)ethyl)-N-((5-(trifluoromethyl)pyridin-2-yl)methyl)imidazo[1,5-c]quinazoline-9-carboxamide], the EC50 selectivity in series [1] (setting [5]) is recorded as 16. For the same compound, the 50% effective concentration (EC50) in series [1] is more than 5 nM. For the same compound, in series [2] (setting [7]), the cytotoxic concentration (CC50) fell in the range of 100 to 1000 nM.

In turn, `CC(=O)N(C)N(Cc1ccc(-c2cnn(C(F)(F)F)c2)cc1F)C(=O)c1ccc2nc(N)c3c(C)ncn3c2c1` [Fa-5, N′-acetyl-4-amino-N-(2-fluoro-4-(1-(trifluoromethyl)-1H-pyrazol-4-yl)benzyl)-N′,3-dimethylimidazo[1,5-a]quinoxaline-8-carbohydrazide] returned an EC50 selectivity in series [1] (setting [8]) of 101. In series [1], the EC50 lay in the range of 1 to 5 nM. Further, the CC50 in series [2] (setting [9]) is less than 100 nM.

With `Nc1nc2cc(F)c(C(=O)N(Cc3ccc(C(F)(F)F)cc3F)C(CO)CO)cc2n2cncc12` [Ff-27, 4-amino-7-fluoro-N-[[2-fluoro-4-(trifluoromethyl)phenyl]methyl]-N-[2-hydroxy-1-(hydroxymethyl)ethyl]imidazo[1,5-a]quinoxaline-8-carboxamide], the EC50 selectivity in series [1] (setting [8]) turned out to be 51. Also, in series [1], the EC50 was more than 5 nM. The CC50 in series [2] (setting [9]) was more than 1000 nM.

In turn, `Cc1ncc2c(N)nc3cnc(C(=O)N4C[C@H](F)C[C@@H]5Oc6cc(C(F)(F)F)ccc6[C@@H]54)cc3n12` (racemic) [Ff-682, Rac-(4-amino-1-methylimidazo[1,5-a]pyrido[3,4-e]pyrazin-8-yl)((3R,4aS,9bS)-3-fluoro-7-(trifluoromethyl)-3,4,4a,9b-tetrahydrobenzofuro[3,2-b]pyridin-1(2H)-yl)methanone] registered an EC50 selectivity in series [1] (setting [5]) of 128. Moreover, the EC50 in series [1] fell in the range of 1 to 5 nM. Besides, the cytotoxic concentration (CC50) in series [2] (setting [7]) is less than 100 nM.

On to `Cc1cc2nc(N)c3cncn3c2cc1C(=O)N(C)[C@@H]1COc2cc(C(F)(F)F)ccc21` [Ff-674, (S)-4-amino-N,7-dimethyl-N-(6-(trifluoromethyl)-2,3-dihydrobenzofuran-3-yl)imidazo[1,5-a]quinoxaline-8-carboxamide], for which the EC50 selectivity in series [1] (setting [5]) worked out at 85. This compound also came in with an EC50 in series [1] not above 1 nM. Also, in series [2] (setting [7]), the CC50 is less than 100 nM.

In series [1] (setting [8]), `CN(C(=O)c1ccc2nc(N)c3cncn3c2c1)[C@@H]1COc2cc(C(F)(F)F)ccc21` [Ff-11, (S)-4-amino-N-methyl-N-(6-(trifluoromethyl)-2,3-dihydrobenzofuran-3-yl)imidazo[1,5-a]quinoxaline-8-carboxamide] displayed an EC50 selectivity of 352. For the same compound, in series [1], the concentration giving a half-maximal response (EC50) was not above 1 nM. Further, the CC50 in series [2] (setting [9]) is less than 100 nM.

For `Cc1ncn2c1c(N)nc1cnc(C(=O)N3C[C@@H](F)C[C@@H]4Oc5cc(OC(F)(F)F)ccc5[C@@H]43)cc12` [Fg-46, (4-amino-3-methylimidazo[1,5-a]pyrido[3,4-e]pyrazin-8-yl)((3S,4aS,9bS)-3-fluoro-7-(trifluoromethoxy)-3,4,4a,9b-tetrahydrobenzofuro[3,2-b]pyridin-1(2H)-yl)methanone], the EC50 selectivity in series [1] (setting [5]) worked out at 273. For the same compound, the EC50 in series [1] is not above 1 nM. Moreover, the CC50 in series [2] (setting [7]) was less than 100 nM.

`Nc1nc2cnc(C(=O)N3CCC[C@@H]4Oc5cc(C(F)(F)F)ccc5[C@@H]43)cc2n2cnc(F)c12` (single isomer, unassigned) [Ff-626] yielded an EC50 selectivity in series [1] (setting [5]) of 143. This compound registered an EC50 in series [1] of 1 to 5 nM. In addition, in series [2] (setting [7]), the CC50 was less than 100 nM.

Turning to `C[C@@H]1CN(C(=O)c2cc3c(cc2F)nc(N)c2cncn23)[C@H]2c3ccc(Br)c(F)c3C[C@H]2O1` (single isomer, unassigned) [Ff-163], the EC50 selectivity in series [1] (setting [8]) turned out to be 64. In series [1], this compound had an EC50 of 1 to 5 nM. In addition, the CC50 in series [2] (setting [9]) is less than 100 nM.

In series [1] (setting [8]), `Cc1ncc2c(N)nc3ccc(C(=O)N(Cc4ccc(C(F)(F)F)cn4)N4CCCC4=O)cc3n12` [Fc-1, 4-amino-1-methyl-N-(2-oxopyrrolidin-1-yl)-N-[[5-(trifluoromethyl)-2-pyridyl]methyl]imid-azo[1,5-a]quinoxaline-8-carboxamide] had an EC50 selectivity of 171. This compound displayed an EC50 in series [1] of 1 to 5 nM. Further, in series [2] (setting [9]), the CC50 lay in the range of 100 to 1000 nM.

In general, EC50 refers to the midpoint of the concentration-response curve. Lower therefore signals a more potent agent. Usually CC50 stands for the concentration giving 50% cytotoxicity. What is called solubility is the dissolved amount per volume that the medium holds. Higher therefore signals much dissolved substance.
